Earlier results in PMC9292820 (British Journal of Clinical Pharmacology, 2021).

Experiments:
[1] = tested on: healthy male participants
[2] = tested on: angiotensin II (Ang‐II); details: rats, bolus injection

Row | Substance | decrease in pupil/iris ratio (miosis) [1] | levels of angiotensin II (Ang‐II) [2]
1 | buprenorphine | up to 50% | –
2 | opiorphin (QRFSR; Opiorphin; UniProt Q99935 22-26, looked up) | – | increased levels
